Measurements reported in PMC4792161, “A novel pyrazole derivative protects from ovariectomy-induced osteoporosis through the inhibition of NADPH oxidase” (Scientific Reports, 2016).
Marks after values point to notes of the source that are not given here.

Columns and labels:
bone density = test system: bone density; parameters: method as in PMID 16754727; settings: estrogen replacement; cited from earlier work
[1] = Direct ROS (H2O2) scavenging in vitro; settings: 1 mM NAC, 1 mM H2O2, control scavenger
Source text: Based on the notion that the differentiation of OCs is mediated by Nox1/2/4-dependent ROS generation, we have performed a high throughput enzyme inhibitor screening assay to identify chemical compounds having Nox1/2/4 inhibitory activity for the development of an anti-osteoporosis agent. Purified Drosophila membranes expressing human Nox1, Nox2, or Nox4 were used to monitor ROS production by determining the oxidation of lucigenin, evident as chemiluminescence, in the absence or presence of chemical compound[18]. A chemical library containing 31,000 compounds was screened to identify Nox inhibitors. […] (Fig. 1B, Supplementary Fig. S2). […] Moreover, we investigated whether Ewha-18278 can directly scavenge ROS in vitro.
Supplementary Figure S3. (A) Ewha-18278 compounds can not directly scavenge superoxide or other reactive species in vitro. ROS (H2O2) measured with lucigenin. Reaction mixtures contained 1 […]
Luminescence measured over 30 min at 37
°C with luminometor (Gloma X luminometor, Turner BioSystem). […]
the phagocytosis of zymosan. […]
incubated with FITC-zymosan particles, and internalized fluorescence was measured by flow cytometry. The data are presented as the MFI of internalized FITC. Data represent mean ± S.D. […]

[2] = test system: OVX-induced osteoporotic ddY mice; test: Femur weights (wet, dry, ash) in OVX mice; format: in vivo; settings: 2.5 mg/kg oral once daily 28 days
Procedure: (§1) The right sides of femur and tibia were weighed and then dried at 120 °C for 8 hours. The dried bones were carbonized at 800 °C for 6 hours in a furnace (Daihan Scientific, Korea) to detect ash absolute weights, after measurement of BMD and failure load. To reduce the individual body weight differences, the relative weight (%) was calculated using body weight at sacrifice and absolute weight as [Relative bone weights = (Absolute bone weight/Body weight at sacrifice) ×100]. In addition, ashed bones were ground and dissolved in nitric acid. In diluted solution, Ca and P contents were calculated (mg/g bone) using an orthocresolphthalein complex and enzyme methods, respectively. The Ca/P ratio (%) was calculated as (Tibia Ca contents/Tibia P contents) ×100.

[3] = test system: OVX-induced osteoporotic ddY mice; test: Femur histopathology-histomorphometry in OVX mice; format: in vivo; settings: 2.5 mg/kg oral once daily 28 days
Procedure: Risedronate sodium (2.5 mg/kg) served as a reference compound. […] Histopathology and histomorphometrical analyses including trabecular bone volume (BV/TV), trabecular bone number (Tb.N), trabecular bone length (Tb.Le), trabecular bone thickness (Tb.Th), cortical bone thickness (Ct.Th), OC number (N.Oc), bone mineral density (BMD) and bone strength (failure load, FL) were conducted.
(§2) The study was reviewed and approved by the Institutional Animal Care and Use Committee (IACUC) of Center for Laboratory Animal Sciences, Ewha Industry-University Cooperation Foundation, Ewha Womans University. Experimental methods were carried out in accordance with the approved ethic guidelines in Ewha Industry-University Cooperation Foundation, Ewha Womans University. Beginning 4 weeks after OVX, the female ddY mice received 2.5, 5, 10, or 20 mg/kg of #18–278, 2.5 mg/kg of risedronate, or vehicle once daily for 28 days. The Changes in body weight, bone weight, bone mineral density (BMD), failure load (FL), bone calcium (Ca), inorganic phosphorus (P) contents, histology and histomorphology were monitored. Serum osteocalcin and bone specific alkaline phosphatase (bALP) were monitored in mice receiving Ewha-18278.
The left side of femur of each mouse was separated and fixed in 10% neutral buffered formalin and decalcified in a solution comprised of 24.4% formic acid and 0.5N sodium hydroxide for 5 days, with spent solution replaced with fresh solution each day. Each sample was embedded in paraffin, sectioned to a thickness of 3–4 μm and exposed to with Hematoxylin & Eosin (H&E) stain. Histomorphometry was conducted as for bone mass and structure with bone resorption in a uniform area of epiphyseal regions of femur (growth plate regions were excluded). Cortical bone thickness was measured in the mid-shaft region of the femur.

[4] = test system: OVX-induced osteoporotic ddY mice; test: Bone strength (failure load, three-point bending test) in OVX mice; format: in vivo; settings: oral once daily 28 days; risedronate 2.5 mg/kg
[5] = test system: OVX-induced osteoporotic ddY mice; test: Tibia histopathology-histomorphometry in OVX mice; format: in vivo; settings: 2.5 mg/kg oral once daily 28 days
OVX rats = settings: 2.5 mg/kg/day for 8 weeks; cited from earlier work
[6] = Body weight changes in OVX mice; format: in vivo, ddY mice; settings: risedronate 2.5 mg/kg; Ewha-18278 2.5, 5, 10 and 20 mg/kg; 28 days
Procedure: as §2
R esi dronat e 2. 5mg/kg t reated mi ce […]
D ay after administration (d)
Supplementary Figure S7. Body weight changes in OVX mice. We selected eight mice per group showing more increases of body weights as compared with sham-operated mice and regarded as good OVX animals at four weeks after OVX surgery, consequently, significant increases of body weights were detected in all OVX groups as compared with sham control mice throughout 28 days of […]
mice, in the present study. Values are expressed mean ± S.D. of eight mice. Risedronate sodium was administered at 2.5mg/kg levels. […]

[7] = test system: OVX-induced osteoporotic ddY mice; test: Tibia weights (wet, dry, ash) in OVX mice; format: in vivo; settings: 2.5 mg/kg oral once daily 28 days
Procedure: as §1
Supplementary Table S4. Tibia Weights in OVX Mice Values are expressed mean ± S.D. of eight mice Risedronate sodium was administered at 2.5mg/kg levels a p<0.01 as compared with sham control […]
material OVX = ovariectomy
Groups Tibia absolute weights (g) Tibia relative weights (% of body weight)Wet Dry Ash Wet Dry Ash

For `O=C(c1ccc(OCCN2CCCCC2)cc1)c1c(-c2ccc(O)cc2)sc2cc(O)ccc12` [Raloxifene], the “increase of bone density” value (bone density) is listed as 3–4%.
For `CC(=O)N[C@@H](CS)C(=O)O` [N-acetyl cysteine, reference compound], the “change in hydrogen peroxide concentration (ROS scavenging)” value [1] was “decrease in hydrogen peroxide concentration”.
In the case of `O=P(O)(O)C(O)(Cc1cccnc1)P(=O)(O)O` [Risedronate, Risedronate sodium, reference compound], the “Femur absolute weights, Ash” value [2] is reported as 0.037 g, the “Femur absolute weights, Dry” value [2] is reported as 0.066 g and the “Femur absolute weights, Wet” value [2] is reported as 0.096 g. The “Femur relative weights, Ash” value [2] was 0.102 % of body weight, the “Femur relative weights, Dry” value [2] was 0.181 % of body weight and the “Femur relative weights, Wet” value [2] was 0.263 % of body weight. For the same compound, the “BV/TV (trabecular bone volume)” value [3] was 38.08 ± 7.20 ^c %, the “Ct.Th (cortical bone thickness)” value [3] was 128.36 ± 15.57 ^a μm and the “N.OC/BS (osteoclast cell number, N/epiphyseal)” value [3] was 19.00 ± 2.93 ^eg numbers. For the same compound, the “Tb.Le (trabecular bone length)” value [3] was 1.04 ± 0.12 ^ac mm, the “Tb.N (trabecular bone number, N/epiphyseal)” value [3] was 24.50 ± 4.00 ^eg numbers and the “Tb.Th (trabecular bone thickness)” value [3] was 47.25 ± 4.73 ^ad μm. For the same compound, the “bone strength (FL) of femur and tibia compared to control OVX” value [4] was “did not show any favorable effects”, the “BV/TV (trabecular bone volume)” value [5] was 35.71 ± 5.63 ^c % and the “Ct.Th (cortical bone thickness)” value [5] was 113.81 ± 14.45 ^a μm. The “N.OC/BS (osteoclast cell number, N/epiphyseal)” value [5] was 19.38 ± 3.20 ^ac numbers, the “Tb.Le (trabecular bone length)” value [5] was 0.76 ± 0.12 ^ac mm and the “Tb.N (trabecular bone number, N/epiphyseal)” value [5] was 19.25 ± 1.67 ^bc numbers. The “Tb.Th (trabecular bone thickness)” value [5] was 43.52 ± 8.73 ^ac μm, the “microstructural and biomechanical features of bone” value (OVX rats) was “maintains microstructural and biomechanical features of bone” and the “body weights as compared with OVX control mice” value [6] was “no meaningful changes”. For the same compound, the “Tibia absolute weights, Ash” value [7] was 0.031 g, the “Tibia absolute weights, Dry” value [7] was 0.050 g and the “Tibia absolute weights, Wet” value [7] was 0.071 g. For the same compound, the “Tibia relative weights, Ash” value [7] was 0.085 % of body weight, the “Tibia relative weights, Dry” value [7] was 0.137 % of body weight and the “Tibia relative weights, Wet” value [7] was 0.196 % of body weight.
